Reference: the NIST ThermoML archive (doi:10.1016/j.jct.2019.01.028)

Assays:
[1] = xn = mol fraction of the nth substance listed; conditions: transient hot wire
[2] = transient hot wire

F/C=C/C(F)(F)F [trans-1,3,3,3-tetrafluoropropene] + C=C(F)C(F)(F)F
[1], x1 = 0.5
Conditions | thermal conductivity [W/m/K]
274.82 K, 1240 kPa, Liquid | 0.0766
294.69 K, 1080 kPa, Liquid | 0.0689
303.67 K, 2050 kPa, Liquid | 0.0679
303.96 K, 2960 kPa, Liquid | 0.0715
323.14 K, 2920 kPa, Liquid | 0.0633
324.62 K, 2070 kPa, Liquid | 0.0622
355.01 K, 940 kPa, Gas | 0.01929
375.04 K, 1740 kPa, Gas | 0.02197
375.09 K, 1010 kPa, Gas | 0.02168
393.98 K, 1860 kPa, Gas | 0.02321
394.38 K, 2520 kPa, Gas | 0.0246
414.22 K, 2920 kPa, Gas | 0.02633

[Ar] [argon]
[2], Gas
Conditions | thermal conductivity [W/m/K]
311.92 K, 20370 kPa | 0.02811
312.12 K, 24160 kPa | 0.03024
312.12 K, 31080 kPa | 0.0342
312.18 K, 27390 kPa | 0.03235
312.2 K, 25850 kPa | 0.03134
312.35 K, 27380 kPa | 0.0324
312.59 K, 17170 kPa | 0.02649
312.61 K, 13790 kPa | 0.02465
312.73 K, 10320 kPa | 0.02285

O [water]
[2], 100 kPa, Liquid
Conditions | thermal conductivity [W/m/K]
292.8 K | 0.6012
295.01 K | 0.605
303.13 K | 0.6184
303.93 K | 0.6193
305.47 K | 0.622
314.01 K | 0.6259
314.95 K | 0.6275
334.75 K | 0.6479
336.26 K | 0.6496

F/C=C/C(F)(F)F [trans-1,3,3,3-tetrafluoropropene] + FCC(F)(F)F
[1], x2 = 0.5
Conditions | thermal conductivity [W/m/K]
274.68 K, 980 kPa, Liquid | 0.0884
305.14 K, 3140 kPa, Liquid | 0.0754
305.18 K, 1040 kPa, Liquid | 0.0739
305.22 K, 2040 kPa, Liquid | 0.0736
324.82 K, 2960 kPa, Liquid | 0.0627
326.02 K, 2030 kPa, Liquid | 0.0621
344.05 K, 870 kPa, Gas | 0.01922
364.05 K, 990 kPa, Gas | 0.02123
364.13 K, 2030 kPa, Gas | 0.02192
383.85 K, 2230 kPa, Gas | 0.02365
384.09 K, 3030 kPa, Gas | 0.02611
403.87 K, 3020 kPa, Gas | 0.02684

F/C=C/C(F)(F)F [trans-1,3,3,3-tetrafluoropropene] + FC(F)C(F)(F)F
[1], x2 = 0.5
Conditions | thermal conductivity [W/m/K]
262.72 K, 1000 kPa, Liquid | 0.0781
285.7 K, 1080 kPa, Liquid | 0.0737
285.77 K, 2060 kPa, Liquid | 0.0738
304.23 K, 1940 kPa, Liquid | 0.0636
304.8 K, 3080 kPa, Liquid | 0.0688
324.33 K, 3020 kPa, Liquid | 0.0618
333.94 K, 1120 kPa, Gas | 0.01783
353.67 K, 1810 kPa, Gas | 0.01927
353.84 K, 1230 kPa, Gas | 0.01927
373.56 K, 2020 kPa, Gas | 0.02145
373.67 K, 3040 kPa, Gas | 0.02479
395.41 K, 3040 kPa, Gas | 0.02441

F/C=C/C(F)(F)F [trans-1,3,3,3-tetrafluoropropene] + CC(F)(F)F
[1], x2 = 0.5
Conditions | thermal conductivity [W/m/K]
264.94 K, 910 kPa, Liquid | 0.0772
285.99 K, 2120 kPa, Liquid | 0.0752
286.02 K, 1020 kPa, Liquid | 0.0742
304.35 K, 2020 kPa, Liquid | 0.069
304.36 K, 3040 kPa, Liquid | 0.0685
324.01 K, 2890 kPa, Liquid | 0.0624
345.02 K, 950 kPa, Gas | 0.01913
364.82 K, 1040 kPa, Gas | 0.02103
364.82 K, 1730 kPa, Gas | 0.02117
384.54 K, 1920 kPa, Gas | 0.02317
384.6 K, 2540 kPa, Gas | 0.02357
404.05 K, 2960 kPa, Gas | 0.02606

Cc1ccccc1 [toluene]
[2], 100 kPa, Liquid
Conditions | thermal conductivity [W/m/K]
272.64 K | 0.1372
273.45 K | 0.1366
295.01 K | 0.1308
295.07 K | 0.1307
316.82 K | 0.1253
318.84 K | 0.1243
321.21 K | 0.1237
335.27 K | 0.12
337.36 K | 0.1192
347 K | 0.1175

FC(F)C(F)(F)F [pentafluoroethane] + CC(F)F
[1], x1 = 0.5
Conditions | thermal conductivity [W/m/K]
264.9 K, 1000 kPa, Liquid | 0.0845
273.97 K, 2140 kPa, Liquid | 0.0856
284.7 K, 1000 kPa, Liquid | 0.0799
294.68 K, 3030 kPa, Liquid | 0.0789
294.83 K, 2010 kPa, Liquid | 0.0774
314.1 K, 3080 kPa, Liquid | 0.0646
335.9 K, 1110 kPa, Gas | 0.0178
353.81 K, 1710 kPa, Gas | 0.01953
353.92 K, 1220 kPa, Gas | 0.01934
374.25 K, 1920 kPa, Gas | 0.0231
374.33 K, 2760 kPa, Gas | 0.0237
393.94 K, 3110 kPa, Gas | 0.02557

CC(F)(F)F [1,1,1-trifluoroethane] + C=C(F)C(F)(F)F
[1], x1 = 0.5
Conditions | thermal conductivity [W/m/K]
265.44 K, 1220 kPa, Liquid | 0.0777
284.11 K, 2050 kPa, Liquid | 0.0715
285.09 K, 1060 kPa, Liquid | 0.0696
307.25 K, 2030 kPa, Liquid | 0.0625
307.34 K, 3050 kPa, Liquid | 0.0644
324.39 K, 3040 kPa, Liquid | 0.0585
334.34 K, 1080 kPa, Gas | 0.01836
354.13 K, 1170 kPa, Gas | 0.02059
354.52 K, 1730 kPa, Gas | 0.02034
373.86 K, 2750 kPa, Gas | 0.02379
374.86 K, 1900 kPa, Gas | 0.02277
393.8 K, 3090 kPa, Gas | 0.02622

FC(F)C(F)(F)F [pentafluoroethane] + C=C(F)C(F)(F)F
[1], x1 = 0.5
Conditions | thermal conductivity [W/m/K]
259.84 K, 1110 kPa, Liquid | 0.0717
284.9 K, 1150 kPa, Liquid | 0.0674
285.15 K, 1880 kPa, Liquid | 0.0686
304.07 K, 2060 kPa, Liquid | 0.0644
305.21 K, 3030 kPa, Liquid | 0.0595
324.75 K, 3030 kPa, Liquid | 0.0529
334.55 K, 1340 kPa, Gas | 0.01759
354.3 K, 1450 kPa, Gas | 0.01925
354.63 K, 1840 kPa, Gas | 0.02057
374.24 K, 2810 kPa, Gas | 0.02329
374.46 K, 2040 kPa, Gas | 0.02202
394.23 K, 3100 kPa, Gas | 0.02512
